# From article PMC10438916 (Results in chemistry, 2022)
# Key:
# human sEH = target: T1, human sEH (Homo sapiens, UniProt P34913); assay: Determination of inhibitory potency; assay type: biochemical; conditions: read-out: Human sEH IC50; recombinant affinity purified human sEH, means of three separate experiments
# T1 sequence (P34913 1-555): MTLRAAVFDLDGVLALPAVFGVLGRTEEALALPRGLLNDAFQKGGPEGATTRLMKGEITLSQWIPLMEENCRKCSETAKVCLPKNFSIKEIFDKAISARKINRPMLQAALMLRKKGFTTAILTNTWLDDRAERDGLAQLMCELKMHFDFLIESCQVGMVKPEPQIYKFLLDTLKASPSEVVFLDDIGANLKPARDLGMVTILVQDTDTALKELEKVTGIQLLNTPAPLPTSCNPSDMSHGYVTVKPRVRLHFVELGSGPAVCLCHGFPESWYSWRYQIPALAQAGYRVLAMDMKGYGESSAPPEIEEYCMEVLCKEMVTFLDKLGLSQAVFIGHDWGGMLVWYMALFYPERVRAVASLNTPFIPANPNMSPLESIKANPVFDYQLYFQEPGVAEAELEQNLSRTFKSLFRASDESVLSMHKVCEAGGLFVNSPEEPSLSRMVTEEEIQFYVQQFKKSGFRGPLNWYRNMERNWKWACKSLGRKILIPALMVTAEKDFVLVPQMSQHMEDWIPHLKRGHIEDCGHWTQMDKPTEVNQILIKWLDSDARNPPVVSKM
# [1] = Solubility by turbidimetric assay in sodium phosphate buffer; assay type: physicochemical; conditions: sodium phosphate buffer pH 7.4, 0.1 M, 1% DMSO
IC50 (human sEH),Solubility [1],SMILES
0.0015 µM,50 ± 10 µM,"CC1(C)C2CCC1(C)C(NC(=O)Nc1cccc(F)c1)C2 (racemic) [L/D-3a, rac-1-(3-fluorophenyl)-3-(1,7,7-trimethylbicyclo[2.2.1]heptan-2-yl)urea]"
0.0051 µM,65 ± 15 µM,"CC1(C)C2CCC1(C)C(NC(=O)Nc1ccc(F)cc1)C2 (racemic) [L/D-3b, rac-1-(4-fluorophenyl)-3-(1,7,7-trimethylbicyclo[2.2.1]heptan-2-yl)urea]"
0.085 µM,30 ± 10 µM,"CC1(C)C2CCC1(C)C(NC(=O)Nc1ccccc1Cl)C2 (racemic) [L/D-3c, rac-1-(2-chlorophenyl)-3-(1,7,7-trimethylbicyclo[2.2.1]heptan-2-yl)urea]"
0.0016 µM,35 ± 15 µM,"CC1(C)C2CCC1(C)C(NC(=O)Nc1cccc(Cl)c1)C2 (racemic) [L/D-3d, rac-1-(3-chlorophenyl)-3-(1,7,7-trimethylbicyclo[2.2.1]heptan-2-yl)urea]"
0.0028 µM,50 ± 10 µM,"CC1(C)C2CCC1(C)C(NC(=O)Nc1cccc(F)c1)C2 [Compound D-3a, D-1-(3-fluorophenyl)-3-(1,7,7-trimethylbicyclo[2.2.1]heptan-2-yl)urea]"
0.0082 µM,65 ± 15 µM,"CC1(C)C2CCC1(C)C(NC(=O)Nc1ccc(F)cc1)C2 [Compound D-3b, D-1-(4-fluorophenyl)-3-(1,7,7-trimethylbicyclo[2.2.1]heptan-2-yl)urea]"
0.0696 µM,30 ± 10 µM,"CC1(C)C2CCC1(C)C(NC(=O)Nc1ccccc1Cl)C2 [Compound D-3c, D-1-(2-chlorophenyl)-3-(1,7,7-trimethylbicyclo[2.2.1]heptan-2-yl)urea]"
0.0017 µM,35 ± 15 µM,"CC1(C)C2CCC1(C)C(NC(=O)Nc1cccc(Cl)c1)C2 [Compound D-3d, D-1-(3-chlorophenyl)-3-(1,7,7-trimethylbicyclo[2.2.1]heptan-2-yl)urea]"
0.23 µM,45 ± 10 µM,"CC12CCC(C1)C(C)(C)C2NC(=O)Nc1cccc(F)c1 [Compound D-6a, D-1-(3-fluorophenyl)-3-(1,3,3-trimethylbicyclo[2.2.1]heptan-2-yl)urea]"
0.367 µM,65 ± 15 µM,"CC12CCC(C1)C(C)(C)C2NC(=O)Nc1ccc(F)cc1 [Compound D-6b, D-1-(4-fluorophenyl)-3-(1,3,3-trimethylbicyclo[2.2.1]heptan-2-yl)urea]"
4.81 µM,40 ± 10 µM,"CC12CCC(C1)C(C)(C)C2NC(=O)Nc1ccccc1Cl [Compound D-6c, D-1-(2-chlorophenyl)-3-(1,3,3-trimethylbicyclo[2.2.1]heptan-2-yl)urea]"
0.111 µM,40 ± 10 µM,"CC12CCC(C1)C(C)(C)C2NC(=O)Nc1cccc(Cl)c1 [Compound D-6d, D-1-(3-chlorophenyl)-3-(1,3,3-trimethylbicyclo[2.2.1]heptan-2-yl)urea]"
0.0007 µM,50 ± 10 µM,"CC1(C)C2CCC1(C)C(NC(=O)Nc1cccc(F)c1)C2 [Compound L-3a, L-1-(3-fluorophenyl)-3-(1,7,7-trimethylbicyclo[2.2.1]heptan-2-yl)urea]"
0.004 µM,65 ± 15 µM,"CC1(C)C2CCC1(C)C(NC(=O)Nc1ccc(F)cc1)C2 [Compound L-3b, L-1-(4-fluorophenyl)-3-(1,7,7-trimethylbicyclo[2.2.1]heptan-2-yl)urea]"
0.387 µM,30 ± 10 µM,"CC1(C)C2CCC1(C)C(NC(=O)Nc1ccccc1Cl)C2 [Compound L-3c, L-1-(2-chlorophenyl)-3-(1,7,7-trimethylbicyclo[2.2.1]heptan-2-yl)urea]"
0.0015 µM,35 ± 15 µM,"CC1(C)C2CCC1(C)C(NC(=O)Nc1cccc(Cl)c1)C2 [Compound L-3d, L-1-(3-chlorophenyl)-3-(1,7,7-trimethylbicyclo[2.2.1]heptan-2-yl)urea]"
0.221 µM,45 ± 10 µM,"CC12CCC(C1)C(C)(C)C2NC(=O)Nc1cccc(F)c1 [Compound L-6a, L-1-(3-fluorophenyl)-3-(1,3,3-trimethylbicyclo[2.2.1]heptan-2-yl)urea]"
0.412 µM,65 ± 15 µM,"CC12CCC(C1)C(C)(C)C2NC(=O)Nc1ccc(F)cc1 [Compound L-6b, L-1-(4-fluorophenyl)-3-(1,3,3-trimethylbicyclo[2.2.1]heptan-2-yl)urea]"
1.47 µM,40 ± 10 µM,"CC12CCC(C1)C(C)(C)C2NC(=O)Nc1ccccc1Cl [Compound L-6c, L-1-(2-chlorophenyl)-3-(1,3,3-trimethylbicyclo[2.2.1]heptan-2-yl)urea]"
0.166 µM,40 ± 10 µM,"CC12CCC(C1)C(C)(C)C2NC(=O)Nc1cccc(Cl)c1 [Compound L-6d, L-1-(3-chlorophenyl)-3-(1,3,3-trimethylbicyclo[2.2.1]heptan-2-yl)urea]"

SMILES,IC50 (human sEH),Solubility [1]
"CC1(C)C2CCC1(C)C(NC(=S)Nc1cccc(F)c1)C2 (racemic) [L/D-3e, rac-1-(3-fluorophenyl)-3-(1,7,7-trimethylbicyclo[2.2.1]heptan-2-yl)thiourea]",0.126 µM,10 ± 5 µM
"CC1(C)C2CCC1(C)C(NC(=S)Nc1ccc(F)cc1)C2 (racemic) [L/D-3f, rac-1-(4-fluorophenyl)-3-(1,7,7-trimethylbicyclo[2.2.1]heptan-2-yl)thiourea]",0.0335 µM,15 ± 5 µM
"CC1(C)C2CCC1(C)C(NC(=S)Nc1cccc(F)c1)C2 [Compound D-3e, D-1-(3-fluorophenyl)-3-(1,7,7-trimethylbicyclo[2.2.1]heptan-2-yl)thiourea]",0.176 µM,10 ± 5 µM
"CC1(C)C2CCC1(C)C(NC(=S)Nc1ccc(F)cc1)C2 [Compound D-3f, D-1-(4-fluorophenyl)-3-(1,7,7-trimethylbicyclo[2.2.1]heptan-2-yl)thiourea]",0.0383 µM,15 ± 5 µM
"CC12CCC(C1)C(C)(C)C2NC(=S)Nc1cccc(F)c1 [Compound D-6e, D-1-(3-fluorophenyl)-3-(1,3,3-trimethylbicyclo[2.2.1]heptan-2-yl)thiourea]",6.48 µM,10 ± 5 µM
"CC12CCC(C1)C(C)(C)C2NC(=S)Nc1ccc(F)cc1 [Compound D-6f, D-1-(4-fluorophenyl)-3-(1,3,3-trimethylbicyclo[2.2.1]heptan-2-yl)thiourea]",6.08 µM,15 ± 5 µM
"CC1(C)C2CCC1(C)C(NC(=S)Nc1cccc(F)c1)C2 [Compound L-3e, L-1-(3-fluorophenyl)-3-(1,7,7-trimethylbicyclo[2.2.1]heptan-2-yl)thiourea]",0.0561 µM,10 ± 5 µM
"CC1(C)C2CCC1(C)C(NC(=S)Nc1ccc(F)cc1)C2 [Compound L-3f, L-1-(4-fluorophenyl)-3-(1,7,7-trimethylbicyclo[2.2.1]heptan-2-yl)thiourea]",0.031 µM,15 ± 5 µM
"CC12CCC(C1)C(C)(C)C2NC(=S)Nc1cccc(F)c1 [Compound L-6e, L-1-(3-fluorophenyl)-3-(1,3,3-trimethylbicyclo[2.2.1]heptan-2-yl)thiourea]",2.98 µM,10 ± 5 µM
"CC12CCC(C1)C(C)(C)C2NC(=S)Nc1ccc(F)cc1 [Compound L-6f, L-1-(4-fluorophenyl)-3-(1,3,3-trimethylbicyclo[2.2.1]heptan-2-yl)thiourea]",4.23 µM,15 ± 5 µM
